In ChEMBL document CHEMBL1201862, “PubChem BioAssay data set” (2004):
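Results reflect a 48-hour exposure of cells in 96-well plates to compound at five concentrations. GI50 marks 50% less growth.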 The source made the active and inactive calls. Rule as the data show it: active = GI50 up to about 1.1 µM and inactive = higher.

Experiments:
Test in all cases: NCI tumour cell line growth inhibition, 48 h
A549 = test system: A549
DU-145 = test system: DU-145
EKVX = test system: EKVX
HCC 2998 = test system: HCC 2998
HT-29 = test system: HT-29
MCF7 = test system: MCF7
MDA-MB-435 = test system: MDA-MB-435
NCI-H460 = test system: NCI-H460
NCI/ADR-RES = test system: NCI/ADR-RES
OVCAR-4 = test system: OVCAR-4
RPMI-8226 = test system: RPMI-8226
RXF 393 = test system: RXF 393
SF-268 = test system: SF-268
SF-539 = test system: SF-539
SK-OV-3 = test system: SK-OV-3
SR = test system: SR
TK-10 = test system: TK-10
UACC-257 = test system: UACC-257
UO-31 = test system: UO-31

Compound | GI50 (A549) | GI50 (DU-145) | GI50 (EKVX) | GI50 (HCC 2998) | GI50 (HT-29) | GI50 (MCF7) | GI50 (MDA-MB-435) | GI50 (NCI-H460) | GI50 (NCI/ADR-RES) | GI50 (OVCAR-4) | GI50 (RPMI-8226) | GI50 (RXF 393) | GI50 (SF-268) | GI50 (SF-539) | GI50 (SK-OV-3) | GI50 (SR) | GI50 (TK-10) | GI50 (UACC-257) | GI50 (UO-31)
c1ccc(Nc2nn3c(CCCCCCCCc4nnc5sc(Nc6ccccc6)nn45)nnc3s2)cc1 | 21.6 µM (inactive) | 47.8 µM (inactive) | 23.3 µM (inactive) | 60.8 µM (inactive) | 21.9 µM (inactive) | 26.4 µM (inactive) | 25.4 µM (inactive) | 32.4 µM (inactive) | 26.6 µM (inactive) | 21.8 µM (inactive) | 22.3 µM (inactive) | 41.6 µM (inactive) | 43 µM (inactive) | 56.5 µM (inactive) | 32.1 µM (inactive) | 13.3 µM (inactive) | 28.1 µM (inactive) | 34.2 µM (inactive) | 22.1 µM (inactive)
Cc1cc(C)c(P2C(=C(O[Si](C(C)C)(C(C)C)C(C)C)C(C)(C)C)C2(c2ccccc2)c2ccccc2)c(C)c1 (stereo unspecified) | 61.8 µM (inactive) | > 100 µM (inactive) | > 100 µM (inactive) | > 100 µM (inactive) | > 100 µM (inactive) | > 100 µM (inactive) | > 100 µM (inactive) | > 100 µM (inactive) | > 100 µM (inactive) | > 100 µM (inactive) | 62.8 µM (inactive) | > 100 µM (inactive) | > 100 µM (inactive) | > 100 µM (inactive) | > 100 µM (inactive) | 86.3 µM (inactive) | > 100 µM (inactive) | > 100 µM (inactive) | 76.9 µM (inactive)
CN(C)/C=N/n1c2ccccc2c2ccccc21 | > 100 µM (inactive) | > 100 µM (inactive) | > 100 µM (inactive) | > 100 µM (inactive) | > 100 µM (inactive) | > 100 µM (inactive) | > 100 µM (inactive) | > 100 µM (inactive) | > 100 µM (inactive) | > 100 µM (inactive) | > 100 µM (inactive) | > 100 µM (inactive) | > 100 µM (inactive) | > 100 µM (inactive) | > 100 µM (inactive) | > 100 µM (inactive) | > 100 µM (inactive) | > 100 µM (inactive) | > 100 µM (inactive)
Nc1nc(=O)[nH]cc1F [FLUCYTOSINE] | > 100 µM (inactive) | > 100 µM (inactive) | > 100 µM (inactive) | > 100 µM (inactive) | > 100 µM (inactive) | > 100 µM (inactive) | > 100 µM (inactive) | > 100 µM (inactive) | > 100 µM (inactive) | > 100 µM (inactive) | > 100 µM (inactive) | > 100 µM (inactive) | > 100 µM (inactive) | > 100 µM (inactive) | > 100 µM (inactive) | > 100 µM (inactive) | > 100 µM (inactive) | 24 µM (inactive) | > 100 µM (inactive)
C=C(C)C(=O)OC1C[C@H](COC(C)=O)C2CC=C(C)C2C2OC(=O)C(=C)[C@H]12 (stereo partly specified) | 17 µM (inactive) | 6.19 µM (inactive) | 9.82 µM (inactive) | 12.2 µM (inactive) | 4.25 µM (inactive) | 4.11 µM (inactive) | 3.33 µM (inactive) | 15 µM (inactive) | 2.18 µM (inactive) | 1.74 µM (inactive) | 0.525 µM (active) | 3.81 µM (inactive) | 2.4 µM (inactive) | 4.59 µM (inactive) | 17.2 µM (inactive) | 2.06 µM (inactive) | 6.76 µM (inactive) | 4.09 µM (inactive) | 2.2 µM (inactive)
CCOC(=O)C(NS(=O)(=O)c1ccccc1)(C(F)(F)F)P(=O)(OCC(C)C)OCC(C)C (stereo unspecified) | > 100 µM (inactive) | > 100 µM (inactive) | > 100 µM (inactive) | > 100 µM (inactive) | > 100 µM (inactive) | > 100 µM (inactive) | > 100 µM (inactive) | > 100 µM (inactive) | > 100 µM (inactive) | > 100 µM (inactive) | > 100 µM (inactive) | > 100 µM (inactive) | > 100 µM (inactive) | > 100 µM (inactive) | > 100 µM (inactive) | > 100 µM (inactive) | > 100 µM (inactive) | > 100 µM (inactive) | 98.2 µM (inactive)
O=C1Sc2ccc(Br)cc2C(=O)Sc2ccccc21 | 27.1 µM (inactive) | 11.8 µM (inactive) | 8.02 µM (inactive) | 14.5 µM (inactive) | 14.3 µM (inactive) | 16.4 µM (inactive) | 7.91 µM (inactive) | 15.8 µM (inactive) | 16 µM (inactive) | 13.2 µM (inactive) | 3.33 µM (inactive) | 4.56 µM (inactive) | 7.08 µM (inactive) | 11.6 µM (inactive) | 27.4 µM (inactive) | 1.06 µM (active) | 17.9 µM (inactive) | 13.8 µM (inactive) | 12.9 µM (inactive)
O=C1Cc2c(-c3ccccc3)cc(-c3ccc(Cl)cc3)nc2-c2ccccc2N1 | 9.35 µM (inactive) | 16.7 µM (inactive) | 6.92 µM (inactive) | 6.07 µM (inactive) | 3.66 µM (inactive) | 8.89 µM (inactive) | 8.99 µM (inactive) | 3.21 µM (inactive) | 3.14 µM (inactive) | 1.7 µM (inactive) | 8.47 µM (inactive) | 3.77 µM (inactive) | 4.85 µM (inactive) | 5.83 µM (inactive) | 2.39 µM (inactive) | 10 µM (inactive) | 3.41 µM (inactive) | 14.2 µM (inactive) | 2.05 µM (inactive)
Cc1cc(C)nc(NS(=O)(=O)c2ccc(NNc3c4ccccc4nc4c(C(=O)Nc5ccc(S(N)(=O)=O)cc5)cccc34)cc2)n1 | > 100 µM (inactive) | 42.6 µM (inactive) | 45.2 µM (inactive) | 20.1 µM (inactive) | 39.7 µM (inactive) | 53.5 µM (inactive) | 47.2 µM (inactive) | 37.6 µM (inactive) | > 100 µM (inactive) | 49.5 µM (inactive) | 23.3 µM (inactive) | 40.1 µM (inactive) | 29.9 µM (inactive) | 40.7 µM (inactive) | 47.1 µM (inactive) | 12.8 µM (inactive) | 69.2 µM (inactive) | > 100 µM (inactive) | 45.7 µM (inactive)
C=C1C(=O)O[C@@H]2/C=C(\C)CC/C=C(\C)CC[C@@]12O | 11.6 µM (inactive) | 1.97 µM (inactive) | 4.13 µM (inactive) | 5.31 µM (inactive) | 2.99 µM (inactive) | 2.17 µM (inactive) | 2.62 µM (inactive) | 9.55 µM (inactive) | 10.6 µM (inactive) | 1.98 µM (inactive) | 0.948 µM (active) | 0.185 µM (active) | 5.37 µM (inactive) | 1.2 µM (inactive) | 15.6 µM (inactive) | 2.42 µM (inactive) | 1.73 µM (inactive) | 4.86 µM (inactive) | 1.48 µM (inactive)
O=c1c2cc([N+](=O)[O-])ccc2n2n1Cc1ccccc1C2 | 79.3 µM (inactive) | > 100 µM (inactive) | 31.5 µM (inactive) | > 100 µM (inactive) | > 100 µM (inactive) | > 100 µM (inactive) | > 100 µM (inactive) | 40.6 µM (inactive) | 73.6 µM (inactive) | > 100 µM (inactive) | > 100 µM (inactive) | > 100 µM (inactive) | > 100 µM (inactive) | > 100 µM (inactive) | > 100 µM (inactive) | 87.3 µM (inactive) | > 100 µM (inactive) | > 100 µM (inactive) | 53.3 µM (inactive)
c1ccc2[nH]c3nc4ccccc4c-3cc2c1 | 0.245 µM (active) | 1.26 µM (inactive) | 0.395 µM (active) | 0.757 µM (active) | < 0.0303 µM (active) | 0.304 µM (active) | 0.54 µM (active) | 0.128 µM (active) | 1.28 µM (inactive) | 1.03 µM (active) | 0.327 µM (active) | 0.457 µM (active) | 0.598 µM (active) | 0.367 µM (active) | 0.839 µM (active) | 0.0441 µM (active) | 1.54 µM (inactive) | 0.637 µM (active) | 0.597 µM (active)
CCCC(=O)NC(Nc1ccc(F)cc1)(C(F)(F)F)C(F)(F)F | 16.9 µM (inactive) | 33.2 µM (inactive) | > 100 µM (inactive) | 98.6 µM (inactive) | 64.3 µM (inactive) | > 37.7 µM (inactive) | 1.25 µM (inactive) | 56.5 µM (inactive) | 9.31 µM (inactive) | 12.6 µM (inactive) | 32.2 µM (inactive) | > 100 µM (inactive) | > 100 µM (inactive) | > 79.4 µM (inactive) | > 100 µM (inactive) | > 100 µM (inactive) | > 43.7 µM (inactive) | 8.2 µM (inactive) | 9.48 µM (inactive)
C/C=C(/C)C(=O)O[C@@H]1CCN2CC[C@H](COC(=O)/C(=C/C)CO)C12 (stereo partly specified) | > 100 µM (inactive) | > 100 µM (inactive) | > 100 µM (inactive) | 20.7 µM (inactive) | 28.7 µM (inactive) | > 100 µM (inactive) | 63.1 µM (inactive) | 59.6 µM (inactive) | > 100 µM (inactive) | > 100 µM (inactive) | 33.5 µM (inactive) | > 44.9 µM (inactive) | > 100 µM (inactive) | 84.1 µM (inactive) | > 100 µM (inactive) | 39.5 µM (inactive) | > 100 µM (inactive) | > 53.8 µM (inactive) | > 87.7 µM (inactive)
